# Measured values as given in US10064890B2, “Amorphous calcium carbonate for the treatment of calcium malabsorption and metabolic bone disorders” (AMORPHICAL LTD, priority 2011, dated 2018).
# Counter-ions that a name gives are not always drawn. Marks after values point to notes of the source that are not given here.
# Experiments:
# [1] = Trial 1: serum calcium pharmacokinetics after single oral capsule of 45Ca-labeled calcium carbonate; design: species or system Wistar rats; settings: rat, in vivo
# Procedure: (§1) Twenty-six 2 month-old male Wistar rats, weighing 240±15 g, were orally administered with a single gelatin capsule containing either ACC (amorphous calcium carbonate) or CCC (crystalline calcium carbonate) intrinsically labeled with ^45Ca, followed by measurements of calcium fractional absorption in serum and calcium excretion.
# All animals were treated according to the Israel Animal Welfare Act under the supervision of the Ben-Gurion University Animal Care and Use program. Fifty-one two month-old male Wistar rats (Harlan-Teklad, Jerusalem, Israel), weighing 240±15 g, were randomly housed in 12 stainless steel cages in an environmentally-controlled room (23° C. temperature, 12:12 h light:dark cycle). The rats were fed laboratory rat chow pellets adequate in nutrients ad libitum (Koffolk, Petah-Tikva, Israel) and had free access to water for 48 h. Four days before the beginning of the experiment, the regular diet was replaced with a low calcium diet containing 0.24±0.05% calcium (0.675±0.05% phosphate), specially prepared by mixing two food types containing, respectively, 0.01% calcium (0.3% phosphate; Harlan-Teklad) and 1% calcium (0.8% phosphate; Koffolk). The two food types were separately ground in a mill to yield two powders which were dry mixed in a ratio of 4:1, respectively, until fine homogenization. The homogenized powder was extruded to form new food pellets.
# Seventeen hours prior to capsule administration, the rats were weighed and blood samples were taken (baseline). The rats were then placed into individual metabolic cages and deprived of food and water until 3 h post-capsule administration. Three and 24 h post-dosing, ˜10 g of low calcium food pellets (0.01% calcium; Harlan-Teklad) were given to each rat. Distilled water was allowed ad libitum starting three h post-capsule administration.
# Each rat was lightly sedated for 30 seconds with isoflurane (Minrad) diluted 1:4 (v:v) with propylene glycol (BioLab). A single capsule containing a specific calcium carbonate preparation (i.e. CCC, ACC, or ACC-C; n=17 for each group) was administered intragastrically to each of the experimental rats using a stainless steel rat administration syringe (Harvard Apparatus).
# Blood samples of […] were taken from each rat's tail vein 17 h prior to capsule administration (time 0) and 2, 3, 6, 10, 24 and 34 h post-administration. The blood samples were immediately centrifuged for 10 minutes at 3000 g using a tabletop centrifuge (Hettich Zentrifugen, Bach, Switzerland). Duplicate samples (30 μl) of the supernatant serum were transferred into plastic vials containing scintillation liquid (Zinsser Analytic, Berkshire, UK) and radioactivity was measured using a liquid scintillation counter (Tri-Carb 2100TR, PerkinElmer, Boston, Mass.). Plasma radioactivity from the given dose were normalized according to the measured radioactivity and specific radioactive dose that each rat received [(serum cpm×100)/(total cpm×sample volume)].
# Non-compartmental analysis of an individual rat's calcium concentration versus time data was performed using WinNonLin 5.2 software (Pharsight, Mountain View, Calif.).
# [2] = Trial 1: calcium retention (intake minus feces and urine excretion); assay type: in vivo, Wistar rats; settings: 34 h feces and urine collection, rats
# Procedure: as §1
# Feces and urine were collected during the 17 h starvation phase during the acclimation period (baseline) and during the entire 34 h of the experiment to evaluate calcium. Samples of urine (500 μL) were transferred into plastic vials filled with scintillation liquid. Feces were dried overnight at 70° C. in an oven. The samples were ground in a mortar until fine homogenization. Feces samples (200 mg) were placed into 5 ml of 1 N NaOH solution (Gadot, Netanya, Israel), incubated for 3 hours at 80° C. and centrifuged for 10 minutes at 3,600 g. Duplicate samples of the supernatant (30 μL) were transferred into plastic vials containing scintillation liquid. Radioactivity of the urine and feces samples was measured using a liquid scintillation counter. Retention values were calculated by subtracting the radioactivity measured in the feces and urine from the given dose […].
# [3] = system: ovariectomized (OVX) rat model; experiment: Trial 6: micro-CT of distal femur and 4th lumbar vertebra, ACC with or without alendronate; assay type: in vivo, Sprague Dawley rats; settings: for SMI / TBPf / Tb. N / Tb. Sp / Tb. Th: OVX rats, 4 months treatment
# Procedure: The inventors have conducted a study aiming to evaluate the effects of Amorphous Calcium Carbonate (ACC) on bone mineral density and bone fraction in metabolic bone disorders, and specifically osteoporosis as presented in the ovariectomized (OVX) rat model wherein the ACC is administered in combination with a standard medication for osteoporosis. In the present trial, five groups of rats were tested (4 OVX and 1 sham). Following operation, all rats were left untreated (fed with standard laboratory diet) to develop osteopenia for a period of 2 months. […] In addition, the animals were i.v injected (3 times/week) with either saline or 2 μg/kg alendronate (ALN) according to their group assignment, as described in Table 16.
# A CCC mix containing 1% elemental calcium from crystalline calcium carbonate (Socal® Precipitated Calcium Carbonate), and an ACC mix containing 1% elemental calcium from stable amorphous calcium carbonate (containing 1% phosphoserine and 2% Citrate; Amorphical Ltd., Beer-Sheva, Israel).
# Following 2 months, rats started treatment according to their assignment as described in Table 16 for a period of 4 months. […] Food consumption and body weight were recorded weekly (Table 17). At the end of the treatment period, all rats were sacrificed by CO2.
# [4] = system: ovariectomized (OVX) rat model; experiment: Trial 7: mechanical strength of the 5th lumbar vertebra (compression test); assay type: in vivo, Sprague Dawley rats
# Procedure: (§2) All rats were sacrificed by CO2.
# Mechanical properties (Ultimate force, Energy to ultimate force, Toughness and Energy to yield) were obtained from the compression tests of 5th lumbar vertebral body (L5). Calculation of the material properties were performed by measuring the height of the vertebral body and the average of caudal and cranial diameters using a caliper. Cross sectional area (CSA) and bone volume (BV) were obtained by μCT scanning that covered the entire bone including both trabecular and cortical shell.
# [5] = system: ovariectomized (OVX) rat model; experiment: Trial 7: histomorphometry of un-decalcified proximal tibia sections; assay type: in vivo, Sprague Dawley rats; settings: for BFR/BS / MAR / MS/BS: dynamic (calcein); for BFR/BS / MAR / MS/BS / BV/TV / Tb. N / Tb. Sp / Tb. Th: OVX rats; for BV/TV / Tb. N / Tb. Sp / Tb. Th: structural, 90 days
# Procedure: as §2
# Right tibias were removed from the formaldehyde solution and dehydrated through an ethanol gradient, cleared using xylene (24250521, Bio-Lab Ltd. Haifa, Israel), and infiltrated with 80% methylmethacrylate (MMA; M5599, Sigma Aldrich, Rehovot, Israel)+20% dibutyl phthalate (DBP; 61-5062, Merck Ltd, Hohenbrunn, Germany) for 3 days at 4° C. Specimens were then transferred to MMA+DBP+Benozoyl peroxide (617008, Merck Ltd, Hohenbrunn, Germany) solution for another 6 days infiltration at 4° C. Following infiltration procedure, specimens were embedded in MMA+DBP+2.5% Benozoyl peroxide under a temperature gradient (from 38° C. to 50° C. over a period of 4 days). Mid-sagittal (4 μm) un-decalcified sections from each specimen were cut using a Lecia RM 2025 microtome (Lecia Instruments Ltd, Petach Tikva, Israel) connected to tungsten carbide knifes (Disposable blade; TC65, Rhenium Inc. Bet-Nekufa, Israel). Most sections were stained with McNeal's tetrachrome for structural histomorphometry. The remaining sections were left unstained for dynamic histomorphometry.
# Measurement of both structural and dynamic histomorphometry of the proximal tibia metaphisyes were obtained using a semi-automatic analysis system (Bioquant OSTEO, ver. 7.20.10, BIOQUANT Image Analysis Corporation Nashville, USA) which is connected to a microscope (Nikon Optiphot 2, Kingston, England) equipped with fluorescent light source.
# [6] = system: ovariectomized (OVX) rat model; experiment: Trial 7: bone turnover biochemical markers (urine DPD, serum OC) by EIA; assay type: in vivo, Sprague Dawley rats; settings: day 90, OVX rats
# Procedure: as §2
# Serum Osteocalcin (OC) concentration was determined by EIA kit (#BT-490, Biomedical Technologies Inc. Stoughtone, USA) following a 1:10 serum dilution.
# Urinary Deoxypyridinoline (DPD) concentration was determined by commercial EIA kit (#8007, Qudiel Inc. San Diego, USA) following a 1:50 dilution. DPD levels were normalized to Creatinine levels (#8009, Qudiel Inc. San Diego, USA).
# [7] = system: ovariectomized (OVX) rat model; experiment: Trial 7: micro-CT of distal femur and 4th lumbar vertebra; settings: for Tb. N / Tb. Sp / Tb. Th: OVX rats, 90 days; for DA: sham group lower than the OVX group by / SMI: sham group lower than the OVX group by / TBPf: sham group lower than the OVX group by: 4th-lumbar vertebra, difference from sham; for trabecular bone region in μCT three-dimensional reconstruction: distal femur and 4th vertebra, FIG. 7, in comparison to the Sham; for trabecular femoral BMD: Sham group higher compared to the OVX group by: femur, difference from Sham
# Procedure: In the study, five groups of rats were tested (4 ovariectomized and 1 sham). The OVX animals were fed with special food mixtures in the form of pellets from four different calcium sources: commercial crystalline calcium carbonate served as control (mix A), natural ACC (Gastrolith powder) (mix B), synthetic ACC (comprising trace amounts of phospho-serine) (mix C), and commercial crystalline calcium citrate (mix D). Sham group was administrated with the same food as the control. Pellets from all four mixtures contained ˜0.5% elemental calcium as confirmed by atomic absorption apparatus (Varian AA240, Palo Alto, Calif., USA) and described in Table 19 with no added vitamin D, except for the amounts found in the original food pellets (22 IU vitamin D/g).
# For the administration of the different calcium sources, special food pellets containing were prepared. Low calcium rodent pellets containing 0.02% calcium (Rat chow #TD95027 Harlan Inc., Jerusalem, Israel) was finely grounded and separately mixed with four different calcium sources. […] Every mix was separately pelleted and kept in a sealed bag at room temperature.
# Rats were randomly assigned and operated according to their assigned five groups: Sham (sham-Ovariectomized) fed with mix A, and four other groups were ovariectomized (OVX) using a bilateral dorsal approach according to Lasota and Danowska-Klonowska (2004) Rocz Akad Med Bialymst 49 Suppl 1:129-131, and divided to OVX Control (fed with mix A), OVX Gast (fed with mix B), OVX ACC (fed with mix C) and OVX Citrate (fed with mix D). Following operation, rats were provided a 7 days recovery period under the same conditions as the acclimation period, standard laboratory diet ad-libitum and de-ionized water containing 1.5 ml/400 ml Dipyrone (Vitamed Ltd, Binyamina, Israel), and 1 mg/kg Enrofloxacin (Buyer Ltd. Leverkusen, Germany).
# At the end of the recovery period the rats were group-housed in 47 cages (2 rats/cage) according to the group assignment, under the same controlled room conditions as described above. The assigned supplemental pellets and de-ionized water were provided ad-libitum during the entire treatment period (90 days). […] For dynamic histomorphometric analysis fluorochrom dye Calcein (20 mg/kg body mass; Sigma-Aldrich, Israel) was IP injected to all rats at days 76 and 86. On day 90, rats were individually housed in metabolic cages and deprived from food and water for 18 h. Urine was collected from each metabolic funnel and was stored at −80° C. for future analysis of bone resorption biochemical marker at end of the experiment (Time 90). Immediately after urine sampling, serum samples were extracted for evaluation of formation biochemical marker of day 90 and stored in the same manner as described at day 0. All rats were sacrificed by CO2. Right femurs and 4th lumbar vertebras were dissected, wrapped with gaze pads soaked with saline buffer and kept in −80° C. for measurement of bone micro-CT scan. The 5th lumbar vertebras were stored in the same conditions as the right femurs for mechanical testing. Right tibias were dissected and placed immediately for 24 h at 4° C. in 3.7% formaldehyde solution (F1636, Sigma-Aldrich, Israel) for structural and dynamic histomorphometric measurements.
# Trabecular and cortical bone microarchitecture of right femurs and 4th lumbar vertebras were analyzed using a μCT scanner (Skyscan 1174, Kartuizersweg Kontich, Belgium).
Compound,AUC∞ [1],Cmax [1],Tmax [1],mechanical strength properties lower in comparison to Sham (average) [4] [%],trabecular bone fraction and condensed trabeculas values lower compared to the Sham (average) [5] [%],trabecular separation higher in comparison to Sham [5] [%],BFR/BS [5],MAR [5] [μm/day],MS/BS [5],BV/TV [5],Tb. N [5],Tb. Sp [5],Tb. Th [5],DPD (urine deoxypyridinoline resorption marker) [6],OC (serum osteocalcin formation marker) [6],Tb. N ([7]; 4th lumbar vertebra),Tb. Sp ([7]; 4th lumbar vertebra),Tb. Th ([7]; 4th lumbar vertebra) [μm],DA: sham group lower than the OVX group by [7] [%],SMI: sham group lower than the OVX group by [7] [%],further results
"O=C([O-])[O-].[Ca+2] [CCC, crystalline calcium carbonate]",109.7 ± 6.4 ^a μg × h/mL,5.8 ± 0.07 ^a μg/mL,3.0 ± 0.3 ^a h,–,–,–,–,–,–,–,–,–,–,–,–,–,–,–,–,–,"retention of the received dose [2]: 48.5±1.3%; SMI ([3]; 4th lumbar vertebra): 1.62; TBPf ([3]; 4th lumbar vertebra): 8.5 mm^−1; Tb. N ([3]; 4th lumbar vertebra): 1.75 mm^−1; Tb. Sp ([3]; 4th lumbar vertebra): 374 μm; Tb. Th ([3]; 4th lumbar vertebra): 98.4 μm; trabecular bone region in μCT three-dimensional reconstruction ([3]; distal femur and 4th vertebra, FIG. 5, compared to CCC / third group): lowest trabecular bone region; SMI ([3]; distal femur metaphysis): 1.66; TBPf ([3]; distal femur metaphysis): 7.6 mm^−1; Tb. N ([3]; distal femur metaphysis): 1.5 mm^−1; Tb. Sp ([3]; distal femur metaphysis): 682 μm; Tb. Th ([3]; distal femur metaphysis): 110 μm"
"O=C(O)CC(O)(CC(=O)O)C(=O)O [Citrate, calcium citrate]",–,–,–,40,55,148,0.159^a μm^2/μm/day,1.40,8.25^a %,12.8^b %,2.3^b mm^−1,318^b μm,53^b μm,43.55^e nmol/mmol Cr,15.7^a ng/ml,1.59^b mm^−1,262^b μm,86.6,22,43,"trabecular thickness higher compared to Control [5]: 13%; MS/BS lower from the ACC group ([5]; Citrate vs ACC): 26%; bone formation rate lower from ACC ([5]; Citrate vs ACC): 26%; MS/BS lower from the Gast group ([5]; Citrate vs Gast): 29%; bone formation rate lower from Gast ([5]; Citrate vs Gast): 28%; TBPf: sham group lower than the OVX group by [7]: 91%; trabecular bone region in μCT three-dimensional reconstruction [7]: lowest trabecular bone region; Tb. N ([7]; distal femur metaphysis): 2.4^b mm^−1; Tb. Sp ([7]; distal femur metaphysis): 226^bd μm; Tb. Th ([7]; distal femur metaphysis): 29.1^b μm; trabecular femoral BMD: Sham group higher compared to the OVX group by [7]: 63%; trabecular bone fraction and its number, Citrate compared with Control ([7]; micro-CT): No significant differences"
"O=C([O-])[O-].[Ca+2] [Control, calcium carbonate]",–,–,–,41,55,130,0.164^a μm^2/μm/day,1.30,8.31^a %,12.8^b %,2.5^b mm^−1,296^b μm,47.1^a μm,36.65^be nmol/mmol Cr,14.8^a ng/ml,1.57^b mm^−1,254^b μm,87.5,22,43,TBPf: sham group lower than the OVX group by [7]: 91%; BV/TV and Tb.N lower on average in comparison to the Sham ([7]; distal femur): 65%; trabecular bone region in μCT three-dimensional reconstruction [7]: lowest trabecular bone region; Tb. N ([7]; distal femur metaphysis): 2.2^b mm^−1; Tb. Sp ([7]; distal femur metaphysis): 248^b μm; Tb. Th ([7]; distal femur metaphysis): 29.0^b μm; trabecular femoral BMD: Sham group higher compared to the OVX group by [7]: 64%; BV/TV and Tb.N lower on average in comparison to the Sham ([7]; vertebra): 60%
amorphous calcium carbonate [ACC],134.5 ± 7.0 ^b μg × h/mL,8.1 ± 0.8 ^b μg/mL,2.8 ± 0.2 ^a h,–,–,–,–,–,–,–,–,–,–,–,–,–,–,–,–,–,–
